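All cell lines were grown in 96-well plates and treated with compound for 48 hours. GI50: concentration for 50% inhibition of growth.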 The source made the active and inactive calls. No stated cut-off is given here; in the data, active = GI50 up to about 1.1 µM and inactive = higher.

Among the test systems are 786-0; A549; BT-549; DU-145; HL-60; Hs-578T; K562; MCF7; MDA-MB-231; Malme-3M; NCI-H226; NCI/ADR-RES; PC-3; RPMI-8226; RXF 393; SF-295; SNB-19; SR; UACC-62; UO-31.
Common to all, as to assay: NCI tumour cell line growth inhibition, 48 h

Regarding `CC(C)NC(=O)OCCN=C1c2ccccc2CCc2ccccc21`, the GI50 is 43.6 µM (inactive) in the experiment on 786-0; 22.8 µM (inactive) in the experiment on A549; 13.3 µM (inactive) in the experiment with BT-549; 25.5 µM (inactive) with DU-145; 19.2 µM (inactive) in the experiment with HL-60; 24 µM (inactive) in the experiment with Hs-578T. For the same molecule, the GI50 in the experiment on K562 is 21.5 µM (inactive); in the experiment with MCF7, 22.6 µM (inactive); in the experiment with MDA-MB-231, 25.2 µM (inactive); in the experiment on Malme-3M it was 15.5 µM (inactive); with NCI-H226, 25.6 µM (inactive); in the experiment on NCI/ADR-RES, 30.3 µM (inactive). For the same molecule, the GI50 with PC-3 was 20.5 µM (inactive); with RPMI-8226 it was 18.2 µM (inactive); with RXF 393, 39.7 µM (inactive); in the experiment on SF-295 it was 14.7 µM (inactive); in the experiment with SNB-19, 20.9 µM (inactive); in the experiment with SR, 18.1 µM (inactive). Further, the figures for the GI50 with UACC-62 and in the experiment on UO-31 were 16.1 µM (inactive) and 23.1 µM (inactive), respectively.

For `CCN(CC)c1ccc2cc(C(=O)Nc3cccc4ccccc34)c(=N)oc2c1`, the GI50 was 16.8 µM (inactive) in the experiment with 786-0; 75.9 µM (inactive) with A549; 24 µM (inactive) in the experiment on BT-549; > 100 µM (inactive) in the experiment on DU-145; 7.98 µM (inactive) in the experiment with HL-60; 82 µM (inactive) with Hs-578T. Besides, the GI50 with K562 is > 100 µM (inactive); in the experiment with MCF7, > 100 µM (inactive); with MDA-MB-231, > 100 µM (inactive); in the experiment with Malme-3M, 30.5 µM (inactive); in the experiment with NCI-H226 it was > 100 µM (inactive); in the experiment on NCI/ADR-RES it was > 100 µM (inactive). Also, the GI50 in the experiment with PC-3 was > 100 µM (inactive); with RPMI-8226 it was > 100 µM (inactive); in the experiment on RXF 393, 61 µM (inactive); with SF-295, 45.5 µM (inactive); with SNB-19 it was 52.8 µM (inactive); in the experiment on SR, 7.96 µM (inactive). For the same molecule, the GI50 was 63.4 µM (inactive) with UACC-62 and > 100 µM (inactive) with UO-31.

Regarding `O=C1CC(NCCCNC2CC(=O)c3c(Br)sc(Br)c32)c2c(Br)sc(Br)c21` (stereo not given), the GI50 in the experiment with 786-0 is 0.675 µM (active); in the experiment on A549, 2.69 µM (inactive); in the experiment with BT-549, 1.73 µM (inactive); in the experiment on DU-145 it was 1.66 µM (inactive); in the experiment on HL-60, 1.38 µM (inactive); in the experiment with Hs-578T, 4.58 µM (inactive). The GI50 with K562 was 0.879 µM (active); in the experiment on MCF7, 0.369 µM (active); in the experiment with MDA-MB-231 it was 2.19 µM (inactive); in the experiment with Malme-3M it was 1.98 µM (inactive); in the experiment on NCI-H226, 3.78 µM (inactive); with NCI/ADR-RES it was 2.16 µM (inactive). Also, the GI50 in the experiment with PC-3 is 1.57 µM (inactive); in the experiment with RPMI-8226 it was 0.118 µM (active); with RXF 393, 1.69 µM (inactive); with SF-295, 3.78 µM (inactive); in the experiment on SNB-19 it was 2.45 µM (inactive); with SR it was 0.798 µM (active). The results for the GI50 in the experiment on UACC-62 and in the experiment with UO-31 were 1.62 µM (inactive) and 1.42 µM (inactive), respectively.

In the case of `Cc1ccc2c(n1)C(=O)c1cc(C)c(C)cc1C2=O`, the GI50 in the experiment with 786-0 was 62.1 µM (inactive); in the experiment on A549 it was 64.9 µM (inactive); in the experiment with BT-549 it was > 100 µM (inactive); in the experiment with DU-145 it was > 100 µM (inactive); with HL-60, 36 µM (inactive); in the experiment on Hs-578T it was 44.2 µM (inactive). Besides, the GI50 in the experiment on K562 was 68.7 µM (inactive); in the experiment with MCF7, 67 µM (inactive); with MDA-MB-231, 45.6 µM (inactive); in the experiment on Malme-3M, 43.1 µM (inactive); with NCI-H226, > 100 µM (inactive); with NCI/ADR-RES it was 44 µM (inactive). Further, the GI50 is > 100 µM (inactive) with PC-3; > 100 µM (inactive) with RPMI-8226; 34 µM (inactive) in the experiment on RXF 393; > 100 µM (inactive) in the experiment on SF-295; > 100 µM (inactive) in the experiment on SNB-19; 30.2 µM (inactive) in the experiment on SR. Besides, the GI50 in the experiment on UACC-62 was 45.9 µM (inactive); with UO-31 it was 57.8 µM (inactive).

Consider `Cc1ccnc(NS(=O)(=O)c2ccc(NC(=O)c3ccc4nc5ccccc5c(Nc5ccc(S(=O)(=O)Nc6nccc(C)n6)cc5)c4c3)cc2)n1`, for which the GI50 in the experiment with 786-0 is > 100 µM (inactive); in the experiment on A549, > 100 µM (inactive); with BT-549, 14.3 µM (inactive); in the experiment with DU-145 it was > 100 µM (inactive); in the experiment with HL-60 it was 94.4 µM (inactive); in the experiment with Hs-578T, 37.3 µM (inactive). Further, the GI50 with K562 is 41.4 µM (inactive); in the experiment with MCF7, 21.1 µM (inactive); in the experiment on MDA-MB-231 it was 40.7 µM (inactive); in the experiment with Malme-3M it was 78.5 µM (inactive); in the experiment with NCI-H226 it was > 100 µM (inactive); with NCI/ADR-RES it was > 100 µM (inactive). The GI50 is > 100 µM (inactive) with PC-3; 57.8 µM (inactive) in the experiment with RPMI-8226; 13.6 µM (inactive) with RXF 393; > 100 µM (inactive) in the experiment with SF-295; 51.1 µM (inactive) in the experiment with SNB-19; 21.9 µM (inactive) in the experiment with SR. Besides, the GI50 is 38.3 µM (inactive) in the experiment on UACC-62 and > 100 µM (inactive) with UO-31.

The values are drawn from ChEMBL document CHEMBL1201862, “PubChem BioAssay data set” (2004).
